Experimental findings from patent US12404486B1, “Aspergillus oryzae JAAS-32 and use thereof in preparation of larval Hermetia illucens paste protein peptide” (Jiangsu Academy of Agricultural Sciences, priority 2024, dated 2025) are described below.

Common to all, as to assay: Oxford cup inhibition zone test of antibacterial Hermetia illucens peptide
Common to all, as to type: cell-based
Conditions in all cases: positive control, 1 mg/ml of chloramphenicol

One assay relates to Vibrio alginolyticus. From the text: (§1) Article number (Art. No.) of Staphylococcus aureus: CICC 10306; Art. No. of Escherichia coli: CICC 10372; Art. No. of Vibrio alginolyticus: CICC 10484.
(§2) 1. Extraction of the Antibacterial Peptide of the Larval Hermetia Illucens Paste
(§3) (1) Preparation of an antibacterial peptide extraction solution (10% acetic acid and 0.01 mol/L Na2EDTA).
(§4) (2) The fermentation liquor of larval Hermetia illucens paste in the untreated group and the Aspergillus oryzae fermentation group of Example 2 was mixed with the antibacterial peptide extraction solution well (v: v=1:10), respectively, and liquid-solid extracted for half an hour at 200 rpm and 37° C., then transferred to a centrifugal machine (3500 rpm, 25 min); supernatant was collected as a crude extraction solution of the antibacterial peptide. The crude extraction solution was further frozen-dried to obtain the antibacterial Hermetia illucens peptide.
(§5) 2. Determination of Antibacteral Activity of the Antibacterial Hermetia Illucens Peptide
(§6) […] The concentration of the Staphylococcus aureus solution and Escherichia coli solution as well as Vibrio alginolyticus solution was determined 1.0×10^9 CFU/mL, 1.0×10^9 CFU/mL, and 1.0×10^7 CFU/mL, respectively; proper amount of the Staphylococcus aureus solution and Escherichia coli solution were absorbed and evenly coated on LB media, and the Vibrio alginolyticus solution was coated on a TCBS plate. An Oxford cup having a diameter of 7.5 mm was slightly placed on the LB plate, added with an equivalent amount of the antibacterial Hermetia illucens peptide, and cultured in a 37° C. thermostatic incubator for 10 hours, then the diameter of inhibition zones was observed and measured.

The next assay has as its system Escherichia coli.
From the text: as §1, §2, §3, §4, §5, §6

A further assay concerns Staphylococcus aureus.
From the text: as §1, §2, §3, §4, §5, §6

Consider `O=C(N[C@H](CO)[C@H](O)c1ccc([N+](=O)[O-])cc1)C(Cl)Cl` [chloramphenicol], for which the entries for the “Diameter of inhibition zone” value with Vibrio alginolyticus, with Escherichia coli and in the assay with Staphylococcus aureus were 26 mm, 17 mm and 16 mm, respectively.
